These results are taken from patent US11737989B2, “Clevidipine nanoparticles and pharmaceutical compositions thereof” (CHIESI Farmaceutici S.p.A., priority 2014, dated 2023).

The conditions of data set [1]: in vivo; cited from earlier work.
The conditions of data set [2]: cited from earlier work.
The nature of data set [3]: Oxidative degradation of clevidipine: influence of oxygen content in headspace (H324/78). It counts as physicochemical. Particulars: exposed to ambient light. The text has this:
Nanoparticle formulations with clevidipine (formulation numbers 31, 40 and 42) as well as clevidipine solutions were purged either with nitrogen or compressed air, and exposed to ambient light to determine the effect of head space oxygen on the formation of oxidative degradation product, H324/78.

`CCCC(=O)OCOC(=O)C1=C(C)NC(C)=C(C(=O)OC)C1c1cccc(Cl)c1Cl` (centres unmarked) [Clevidipine, clevidipine]: in data set [1], the Initial phase half-life result is reported as “about one minute”. In data set [2], the Solubility in lipids result is given as “moderate” and the Solubility in water result was “negligible”. For the same molecule, the “H324/78 (% Area)” value in data set [3] (purged with compressed air (Air)) was 3.06 % Area. Also, the “H324/78 (% Area)” value in data set [3] (purged with nitrogen (N2)) is given as 2.54 % Area.
